EC50 data for 2 molecules are collected here from doi:10.1101/2025.08.20.670845v1 (biorxiv, 2025).

Common to all, as to assay: G-Flamp2 cAMP biosensor fluorescence in HeLa cells expressing the receptor
What all share (format): cell-based

The target of test [1] is T1, AgOctβ2R (AgOctβ2) (Anopheles gambiae, UniProt F5HKI1).
T1 sequence (F5HKI1 1-526): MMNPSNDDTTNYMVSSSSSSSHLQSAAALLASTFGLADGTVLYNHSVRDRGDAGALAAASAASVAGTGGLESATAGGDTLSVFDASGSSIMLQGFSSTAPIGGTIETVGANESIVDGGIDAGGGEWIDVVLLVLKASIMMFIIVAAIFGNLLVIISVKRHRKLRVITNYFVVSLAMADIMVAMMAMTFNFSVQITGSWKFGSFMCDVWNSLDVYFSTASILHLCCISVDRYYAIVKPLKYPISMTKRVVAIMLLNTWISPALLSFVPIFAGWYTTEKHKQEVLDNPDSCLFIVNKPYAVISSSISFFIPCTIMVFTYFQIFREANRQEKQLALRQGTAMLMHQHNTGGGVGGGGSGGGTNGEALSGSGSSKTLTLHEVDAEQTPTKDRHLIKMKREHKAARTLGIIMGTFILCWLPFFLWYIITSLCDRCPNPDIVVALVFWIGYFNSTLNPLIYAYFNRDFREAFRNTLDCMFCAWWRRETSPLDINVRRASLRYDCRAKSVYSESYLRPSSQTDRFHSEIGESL

For a further test, the target named is T2, AmOctβ2 (Apis mellifera, UniProt A0A7M7GMY8).
T2 sequence (A0A7M7GMY8 1-438): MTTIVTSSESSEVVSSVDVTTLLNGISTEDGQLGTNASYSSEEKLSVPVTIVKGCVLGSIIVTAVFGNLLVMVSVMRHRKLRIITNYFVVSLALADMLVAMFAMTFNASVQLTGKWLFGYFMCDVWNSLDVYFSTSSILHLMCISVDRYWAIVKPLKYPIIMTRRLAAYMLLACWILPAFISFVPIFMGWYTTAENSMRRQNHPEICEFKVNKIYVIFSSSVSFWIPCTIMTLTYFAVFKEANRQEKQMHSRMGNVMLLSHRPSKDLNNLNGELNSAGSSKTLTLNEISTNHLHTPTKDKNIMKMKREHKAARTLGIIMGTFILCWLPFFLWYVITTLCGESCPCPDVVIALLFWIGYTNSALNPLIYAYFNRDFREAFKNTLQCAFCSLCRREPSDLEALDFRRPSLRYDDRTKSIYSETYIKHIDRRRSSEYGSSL

Test [2] deals with T3, AgOctβ2R (AgOctβ2) (Anopheles gambiae, UniProt F5HKI1, N432C).
T3 sequence (F5HKI1 1-526 N432C): T1 sequence (F5HKI1 1-526)

Another test has as its target T4, VdOctβ2 (Varroa destructor, UniProt A0A7M7KEY3).
T4 sequence (A0A7M7KEY3 1-439): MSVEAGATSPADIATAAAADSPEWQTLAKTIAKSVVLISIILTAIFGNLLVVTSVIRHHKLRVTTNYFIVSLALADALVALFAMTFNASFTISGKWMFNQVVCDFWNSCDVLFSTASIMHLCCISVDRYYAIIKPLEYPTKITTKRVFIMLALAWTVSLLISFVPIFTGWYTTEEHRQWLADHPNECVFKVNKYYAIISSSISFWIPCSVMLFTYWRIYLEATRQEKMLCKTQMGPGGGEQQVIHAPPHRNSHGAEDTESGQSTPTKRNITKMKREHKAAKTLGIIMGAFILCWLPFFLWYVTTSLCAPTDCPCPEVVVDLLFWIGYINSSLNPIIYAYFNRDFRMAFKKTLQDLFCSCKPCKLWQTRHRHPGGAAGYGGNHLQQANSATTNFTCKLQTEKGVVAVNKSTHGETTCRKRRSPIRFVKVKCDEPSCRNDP

Test [3] deals with T5, AgOctβ2R (AgOctβ2) (Anopheles gambiae, UniProt F5HKI1, L290E).
T5 sequence (F5HKI1 1-526 L290E): T1 sequence (F5HKI1 1-526)

For orientation: EC50 means the concentration at which the effect is half-maximal. Read a high EC50 as lower potency in that assay. `Cc1ccc(/N=C/N(C)/C=N/c2ccc(C)cc2C)c(C)c1` [amitraz]: the EC50 is 10.8 nM on AgOctβ2R (AgOctβ2) [1]; 12.1 nM on AmOctβ2; 118 nM at AgOctβ2R (AgOctβ2) [2]; 1.9 nM at VdOctβ2; 85.4 nM on AgOctβ2R (AgOctβ2) [3].

As for `NCC(O)c1ccc(O)cc1` (stereo not drawn) [octopamine], the 50% effective concentration (EC50) is 14.7 nM on AgOctβ2R (AgOctβ2) [1], 45.6 nM at AmOctβ2, 57.3 nM at AgOctβ2R (AgOctβ2) [2] and 47.1 nM at VdOctβ2.
